Data as given in publication PMC5762315, “Inhibition of polo-like kinase 4 (PLK4): a new therapeutic option for rhabdoid tumors and pediatric medulloblastoma” (Oncotarget, 2017).
“And” between values parts separate entries of the source, which are not always exact repeats. Equal entries are not always repeated.

Legend:
Assay in all cases: LanthaScreen Eu Kinase Binding Assay, panel of 486 biochemical kinase assays
[1] = target: various kinases (Homo sapiens, UniProt O00311); settings: CDC7/DBF4
[2] = target: various kinases (Homo sapiens, UniProt O94921); settings: CDK14 (PFTK1)/cyclin Y
[3] = target: various kinases (Homo sapiens, UniProt P10721, A829P); settings: KIT A829P
[4] = target: various kinases (Homo sapiens, UniProt P10721, T670I/V559D); settings: KIT V559D T670I
[5] = target: various kinases (Homo sapiens, UniProt P10721, V654A); settings: KIT V654A
[6] = target: various kinases (Homo sapiens, UniProt P11362, V561M); settings: FGFR1 V561M
[7] = target: various kinases (Homo sapiens, UniProt P15056); settings: BRAF
[8] = target: various kinases (Homo sapiens, UniProt P24941)
[9] = target: various kinases (Homo sapiens, UniProt P29320); settings: EPHA3
[10] = target: various kinases (Homo sapiens, UniProt P37173); settings: kinase TGFBR2; LanthaScreen Binding
Chain of various kinases (Homo sapiens, UniProt P37173) (P37173 23-567): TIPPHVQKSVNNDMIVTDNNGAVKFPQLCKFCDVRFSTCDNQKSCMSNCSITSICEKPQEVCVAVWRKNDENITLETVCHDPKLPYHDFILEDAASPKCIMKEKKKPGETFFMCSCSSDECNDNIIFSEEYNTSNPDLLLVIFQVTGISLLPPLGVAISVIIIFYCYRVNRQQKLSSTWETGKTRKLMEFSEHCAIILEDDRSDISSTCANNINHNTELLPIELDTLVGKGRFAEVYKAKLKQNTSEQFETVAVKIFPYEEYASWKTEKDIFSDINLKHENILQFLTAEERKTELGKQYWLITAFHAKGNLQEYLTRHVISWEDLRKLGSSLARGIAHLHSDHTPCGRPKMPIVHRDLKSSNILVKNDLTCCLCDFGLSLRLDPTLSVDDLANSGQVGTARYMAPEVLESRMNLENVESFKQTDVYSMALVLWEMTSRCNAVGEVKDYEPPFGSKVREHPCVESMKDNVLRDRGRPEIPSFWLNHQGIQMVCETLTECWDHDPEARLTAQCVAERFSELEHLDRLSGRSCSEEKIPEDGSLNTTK

[11] = target: various kinases (Homo sapiens, UniProt P45984); settings: MAPK9 (JNK2)
[12] = target: various kinases (Homo sapiens, UniProt P50750)
Chain of various kinases (Homo sapiens, UniProt P50750) (P50750 whole entry): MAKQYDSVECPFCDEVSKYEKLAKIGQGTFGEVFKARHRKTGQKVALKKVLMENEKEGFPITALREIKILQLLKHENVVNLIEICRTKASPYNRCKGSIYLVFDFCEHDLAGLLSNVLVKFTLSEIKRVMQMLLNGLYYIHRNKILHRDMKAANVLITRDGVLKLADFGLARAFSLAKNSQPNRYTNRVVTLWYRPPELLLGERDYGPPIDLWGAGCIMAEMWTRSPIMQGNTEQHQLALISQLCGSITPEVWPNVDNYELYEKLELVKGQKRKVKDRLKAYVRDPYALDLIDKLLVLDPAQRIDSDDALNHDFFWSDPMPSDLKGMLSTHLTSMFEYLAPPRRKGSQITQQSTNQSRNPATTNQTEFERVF

[13] = target: various kinases (Homo sapiens, UniProt P52564); settings: MAP2K6 (MKK6)
[14] = target: various kinases (Homo sapiens, UniProt P53779); settings: MAPK10 (JNK3)
[15] = target: various kinases (Homo sapiens, UniProt Q02779); settings: MAP3K10 (MLK2)
[16] = target: various kinases (Homo sapiens, UniProt Q04771, R206H); settings: ACVR1 (ALK2) R206H
[17] = target: various kinases (Homo sapiens, UniProt Q13131)
Chain of various kinases (Homo sapiens, UniProt Q13131) (Q13131 whole entry): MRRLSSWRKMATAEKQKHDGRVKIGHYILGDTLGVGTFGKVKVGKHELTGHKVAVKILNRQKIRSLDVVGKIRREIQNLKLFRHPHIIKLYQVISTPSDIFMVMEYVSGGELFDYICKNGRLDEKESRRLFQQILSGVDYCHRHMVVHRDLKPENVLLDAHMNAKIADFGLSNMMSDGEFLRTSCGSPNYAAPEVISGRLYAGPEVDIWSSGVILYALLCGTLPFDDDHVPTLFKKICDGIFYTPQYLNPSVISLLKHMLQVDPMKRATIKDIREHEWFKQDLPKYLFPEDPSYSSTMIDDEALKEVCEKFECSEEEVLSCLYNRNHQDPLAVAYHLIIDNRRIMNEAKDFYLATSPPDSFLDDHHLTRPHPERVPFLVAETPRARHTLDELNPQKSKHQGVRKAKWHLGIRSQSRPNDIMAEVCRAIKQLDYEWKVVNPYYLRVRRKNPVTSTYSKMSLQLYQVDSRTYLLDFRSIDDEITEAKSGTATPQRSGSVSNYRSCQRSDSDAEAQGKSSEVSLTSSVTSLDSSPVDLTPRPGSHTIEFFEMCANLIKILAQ

[18] = target: various kinases (Homo sapiens, UniProt Q14004); settings: CDK13/cyclin K
[19] = target: various kinases (Homo sapiens, UniProt Q15569); settings: kinase TESK1; LanthaScreen Binding
Chain of various kinases (Homo sapiens, UniProt Q15569) (Q15569 whole entry): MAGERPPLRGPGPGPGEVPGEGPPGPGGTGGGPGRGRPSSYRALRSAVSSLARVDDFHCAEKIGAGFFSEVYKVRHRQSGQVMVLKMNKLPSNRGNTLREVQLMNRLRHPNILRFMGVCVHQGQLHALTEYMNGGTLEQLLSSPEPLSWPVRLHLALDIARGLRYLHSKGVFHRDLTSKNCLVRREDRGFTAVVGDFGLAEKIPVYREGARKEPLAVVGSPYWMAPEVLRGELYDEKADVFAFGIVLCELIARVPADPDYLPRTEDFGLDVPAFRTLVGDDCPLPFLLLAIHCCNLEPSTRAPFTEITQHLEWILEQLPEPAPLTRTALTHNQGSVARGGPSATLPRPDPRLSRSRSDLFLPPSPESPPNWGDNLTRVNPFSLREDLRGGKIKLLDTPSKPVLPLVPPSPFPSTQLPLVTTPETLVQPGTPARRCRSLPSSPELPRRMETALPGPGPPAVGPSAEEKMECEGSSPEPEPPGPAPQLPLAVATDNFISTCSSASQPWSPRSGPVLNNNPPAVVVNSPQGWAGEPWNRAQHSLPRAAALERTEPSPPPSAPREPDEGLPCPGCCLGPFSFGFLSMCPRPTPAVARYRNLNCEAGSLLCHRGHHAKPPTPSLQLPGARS

[20] = target: various kinases (Homo sapiens, UniProt Q32MK0); settings: MLCK (MLCK2)
[21] = target: various kinases (Homo sapiens, UniProt Q86UE8); settings: kinase TLK2; LanthaScreen Binding
[22] = target: various kinases (Homo sapiens, UniProt Q8N5S9); settings: CAMKK1 (CAMKKA)
[23] = target: various kinases (Homo sapiens, UniProt Q8NI60); settings: ADCK3
[24] = target: various kinases (Homo sapiens, UniProt Q96RR4); settings: CAMKK2 (CaMKK beta)
[25] = target: various kinases (Homo sapiens, UniProt Q99683); settings: MAP3K5 (ASK1)
[26] = target: various kinases (Homo sapiens, UniProt Q9BWU1)
Chain of various kinases (Homo sapiens, UniProt Q9BWU1) (Q9BWU1 whole entry): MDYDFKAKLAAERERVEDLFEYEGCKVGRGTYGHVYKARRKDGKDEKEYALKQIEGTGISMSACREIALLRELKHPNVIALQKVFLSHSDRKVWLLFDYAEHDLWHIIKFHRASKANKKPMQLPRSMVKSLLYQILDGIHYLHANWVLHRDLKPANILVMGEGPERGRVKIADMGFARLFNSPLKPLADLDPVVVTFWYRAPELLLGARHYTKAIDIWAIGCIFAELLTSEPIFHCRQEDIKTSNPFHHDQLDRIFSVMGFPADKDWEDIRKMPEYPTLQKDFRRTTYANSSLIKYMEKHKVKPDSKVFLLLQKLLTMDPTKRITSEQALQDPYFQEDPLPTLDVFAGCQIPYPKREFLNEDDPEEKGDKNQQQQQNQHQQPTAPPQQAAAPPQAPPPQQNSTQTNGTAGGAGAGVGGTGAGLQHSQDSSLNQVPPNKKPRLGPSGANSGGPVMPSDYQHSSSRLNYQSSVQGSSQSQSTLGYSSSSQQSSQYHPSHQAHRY

[27] = target: various kinases (Homo sapiens, UniProt Q9BYP7); settings: kinase WNK3; LanthaScreen Binding
Chain of various kinases (Homo sapiens, UniProt Q9BYP7) (Q9BYP7 whole entry): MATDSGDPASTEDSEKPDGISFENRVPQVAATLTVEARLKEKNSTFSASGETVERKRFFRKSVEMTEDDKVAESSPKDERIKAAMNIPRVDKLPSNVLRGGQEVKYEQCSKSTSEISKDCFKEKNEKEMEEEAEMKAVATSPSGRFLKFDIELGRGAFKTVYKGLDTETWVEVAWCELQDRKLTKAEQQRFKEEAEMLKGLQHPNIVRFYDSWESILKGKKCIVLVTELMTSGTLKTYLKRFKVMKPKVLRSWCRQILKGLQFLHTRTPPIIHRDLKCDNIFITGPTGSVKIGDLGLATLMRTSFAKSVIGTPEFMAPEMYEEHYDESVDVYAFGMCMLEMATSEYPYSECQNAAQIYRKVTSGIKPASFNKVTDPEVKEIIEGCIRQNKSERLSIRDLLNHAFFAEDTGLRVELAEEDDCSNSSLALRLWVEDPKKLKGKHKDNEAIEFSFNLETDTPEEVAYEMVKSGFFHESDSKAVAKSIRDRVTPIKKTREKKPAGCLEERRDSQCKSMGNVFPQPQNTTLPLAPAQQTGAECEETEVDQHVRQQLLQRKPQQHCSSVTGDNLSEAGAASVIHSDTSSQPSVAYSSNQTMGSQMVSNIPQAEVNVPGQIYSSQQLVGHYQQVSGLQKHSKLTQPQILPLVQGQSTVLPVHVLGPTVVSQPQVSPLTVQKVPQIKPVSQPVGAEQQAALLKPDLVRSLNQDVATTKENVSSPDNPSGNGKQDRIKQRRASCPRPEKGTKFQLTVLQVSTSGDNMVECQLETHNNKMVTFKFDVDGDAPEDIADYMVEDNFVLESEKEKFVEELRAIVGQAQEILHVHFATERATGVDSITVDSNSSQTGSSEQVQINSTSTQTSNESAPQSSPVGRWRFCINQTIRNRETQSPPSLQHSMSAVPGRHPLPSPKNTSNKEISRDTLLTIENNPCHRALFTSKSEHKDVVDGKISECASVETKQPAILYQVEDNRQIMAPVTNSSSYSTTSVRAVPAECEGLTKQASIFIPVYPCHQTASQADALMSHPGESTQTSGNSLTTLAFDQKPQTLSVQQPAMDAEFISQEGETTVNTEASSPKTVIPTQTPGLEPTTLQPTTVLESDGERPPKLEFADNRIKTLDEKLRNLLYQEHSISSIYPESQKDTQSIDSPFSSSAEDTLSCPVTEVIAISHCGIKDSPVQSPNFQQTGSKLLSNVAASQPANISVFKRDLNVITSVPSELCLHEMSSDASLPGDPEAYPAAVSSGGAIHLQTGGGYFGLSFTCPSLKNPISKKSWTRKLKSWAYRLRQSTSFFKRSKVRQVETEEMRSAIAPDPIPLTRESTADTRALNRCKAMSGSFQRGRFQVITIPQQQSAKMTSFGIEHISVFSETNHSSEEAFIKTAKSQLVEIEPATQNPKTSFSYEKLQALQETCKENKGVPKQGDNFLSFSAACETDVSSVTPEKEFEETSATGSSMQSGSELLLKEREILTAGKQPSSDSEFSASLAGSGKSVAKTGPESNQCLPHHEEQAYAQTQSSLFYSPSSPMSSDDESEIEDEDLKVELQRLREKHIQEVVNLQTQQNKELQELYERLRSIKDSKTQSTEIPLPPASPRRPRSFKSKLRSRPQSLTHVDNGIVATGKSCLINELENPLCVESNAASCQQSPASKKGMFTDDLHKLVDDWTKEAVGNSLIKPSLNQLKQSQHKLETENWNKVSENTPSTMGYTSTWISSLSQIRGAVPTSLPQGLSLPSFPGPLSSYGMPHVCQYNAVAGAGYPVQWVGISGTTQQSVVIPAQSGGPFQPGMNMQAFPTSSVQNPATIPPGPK

[28] = target: various kinases (Homo sapiens, UniProt Q9BYT3); settings: kinase STK33; LanthaScreen Binding
Chain of various kinases (Homo sapiens, UniProt Q9BYT3) (Q9BYT3 whole entry): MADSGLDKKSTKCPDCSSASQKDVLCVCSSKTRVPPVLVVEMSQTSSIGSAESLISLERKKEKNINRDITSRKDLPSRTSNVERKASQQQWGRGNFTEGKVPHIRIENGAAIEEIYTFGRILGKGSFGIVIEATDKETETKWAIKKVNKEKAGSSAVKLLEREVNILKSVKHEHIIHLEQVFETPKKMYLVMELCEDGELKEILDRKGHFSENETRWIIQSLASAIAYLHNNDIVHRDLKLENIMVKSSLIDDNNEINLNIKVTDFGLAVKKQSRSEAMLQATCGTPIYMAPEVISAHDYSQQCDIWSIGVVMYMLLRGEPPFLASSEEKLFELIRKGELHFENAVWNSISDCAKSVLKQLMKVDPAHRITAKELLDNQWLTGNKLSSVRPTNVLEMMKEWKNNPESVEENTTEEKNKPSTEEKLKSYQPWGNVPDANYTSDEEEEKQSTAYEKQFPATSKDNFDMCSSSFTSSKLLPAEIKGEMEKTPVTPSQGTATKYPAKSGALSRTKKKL

[29] = target: various kinases (Homo sapiens, UniProt Q9HAZ1); settings: CLK4
[30] = target: various kinases (Homo sapiens, UniProt Q9HBH9); settings: MKNK2 (MNK2)
[31] = target: various kinases (Homo sapiens, UniProt Q9NRM7); settings: LATS2
[32] = target: various kinases (Homo sapiens, UniProt Q9UEW8); settings: kinase STK39 (STLK3); LanthaScreen Binding
[33] = target: various kinases (Homo sapiens, UniProt Q9UF33); settings: EPHA6
[34] = target: various kinases (Homo sapiens, UniProt Q9UKE5); settings: kinase TNIK; LanthaScreen Binding
[35] = target: various kinases (Homo sapiens, UniProt Q9UM73, L1196M); settings: ALK L1196M
[36] = target: various kinases (Homo sapiens, UniProt Q9UPZ9); settings: ICK

In the case of `COc1ccc2c(c1)[C@]1(C[C@H]1c1ccc3c(/C=C/c4ccc(CN5C[C@@H](C)O[C@@H](C)C5)cc4)n[nH]c3c1)C(=O)N2` [CFI-400945], the “% Inhibition” value [1] is reported as 13% and 16%, the “% Inhibition” value [2] is reported as -4% and 2% and the “% Inhibition” value [3] is reported as 0% and 7%. The “% Inhibition” value [4] was 10%, the “% Inhibition” value [5] was 6% and the “% Inhibition” value [6] was 55% and 57%. The “% Inhibition” value [7] was 0% and 6%, the “% Inhibition” value ([8]; CDK2/cyclin A1) was 12% and 19% and the “% Inhibition” value ([8]; CDK2/cyclin E1) was 9%. The “% Inhibition” value ([8]; CDK2/cyclin O) was 13% and 19%, the “% Inhibition” value [9] was -2% and -1% and the “% Inhibition Average” value [10] was 1%. The “% Inhibition Duplicate #1” value [10] was -2%, the “% Inhibition Duplicate #2” value [10] was 5% and the “% Inhibition” value [11] was -4% and -2%. The “% Inhibition” value ([12]; CDK9 (Inactive)) was 13% and 12%, the “% Inhibition” value ([12]; CDK9/cyclin K) was -3% and -6% and the “% Inhibition” value [13] was 14%. The “% Inhibition” value [14] was 3% and -3%, the “% Inhibition” value [15] was -2% and 1% and the “% Inhibition” value [16] was 9% and 13%. For the same compound, the “% Inhibition” value ([17]; AMPK (A1/B1/G2)) was 13% and 9%, the “% Inhibition” value ([17]; AMPK (A1/B1/G3)) was 10% and 15% and the “% Inhibition” value ([17]; AMPK (A1/B2/G1)) was 14% and 13%. For the same compound, the “% Inhibition” value [18] was -6% and 0%, the “% Inhibition Average” value [19] was 12% and the “% Inhibition Duplicate #1” value [19] was 13%. For the same compound, the “% Inhibition Duplicate #2” value [19] was 11%, the “% Inhibition” value [20] was 1% and 6% and the “% Inhibition Average” value [21] was 9%. The “% Inhibition Duplicate #1” value [21] was 14%, the “% Inhibition Duplicate #2” value [21] was 5% and the “% Inhibition” value [22] was -4% and -3%. For the same compound, the “% Inhibition” value [23] was -1% and -4%, the “% Inhibition” value [24] was 33% and 23% and the “% Inhibition” value [25] was -6% and -3%. The “% Inhibition” value ([26]; CDK11 (Inactive)) was -3% and -1%, the “% Inhibition” value ([26]; CDK11/cyclin C) was 16% and 13% and the “% Inhibition Average” value [27] was -2%. For the same compound, the “% Inhibition Duplicate #1” value [27] was -2%, the “% Inhibition Duplicate #2” value [27] was -1% and the “% Inhibition Average” value [28] was -2%. The “% Inhibition Duplicate #1” value [28] was -2%, the “% Inhibition Duplicate #2” value [28] was -2% and the “% Inhibition” value [29] was 1% and -2%. The “% Inhibition” value [30] was 26% and 29%, the “% Inhibition” value [31] was 16% and 14% and the “% Inhibition Average” value [32] was 20%. For the same compound, the “% Inhibition Duplicate #1” value [32] was 18%, the “% Inhibition Duplicate #2” value [32] was 22% and the “% Inhibition” value [33] was 18% and 24%. For the same compound, the “% Inhibition Average” value [34] was 26%, the “% Inhibition Duplicate #1” value [34] was 33% and the “% Inhibition Duplicate #2” value [34] was 18%. For the same compound, the “% Inhibition” value [35] was 14% and 25% and the “% Inhibition” value [36] was 8% and 5%.
